Columns and labels:
[1] = Effect of pH on stability, no antioxidant (one month); format: physicochemical; details: pH 6.0, 7.0, 7.5, 8.0, 8.5, no antioxidant, about 40° C.
Experimental: Five different solutions of the compound of Formula 1 were prepared. The first solution was buffered to a pH of 6.0, the second solution was buffered to pH 7.0, the third solution was buffered to pH 7.5, the fourth solution was buffered to pH 8.0, and the fifth solution was buffered a pH of 8.5. No antioxidant was added and all solutions were stored at a temperature of about 40° C. for a period of about one month after which the percentage of total degradates was measured for each solution. The results of this experiment are graphically represented in FIG. 12.

[2] = Stability of three different formulations (total degradates at 40° C.); format: physicochemical
Experimental: Three separate solutions of the compound of Formula 1 of same concentration were prepared. The first solution (pH=6.0) was stored at 40° C. without any further additives for about four months. The second solution (pH=6.0) was further treated with a metabisulfite salt and allowed to stand at 40° C. for about four months. The pH of the third solution was buffered to pH 7.5 and allowed to stand at 40° C. for about 4 months without any further additives. The percentage of total degradates was measured for each solution after about every 4 weeks. The results of this experiment are graphically represented in FIG. 2.

[3] = Effect of pH on stability of nitrogen sparged solutions (four months); format: physicochemical; details: pH 6.0, 7.0, 7.5, about 40° C.
Experimental: (§1) Three solutions of the compound of Formula 1 were prepared. The pH of the first solution was buffered to 6.0, the pH of the second solution was also buffered to 7.0 and pH of the third solution was buffered to 7.5. All the three solutions were sparged with nitrogen were stored at a temperature of about 40° C. for a period of about four months. The percentage of total degradates was measured for each solution after about every four weeks. The results of this experiment are graphically represented in FIG. 9.

[4] = Stability of 5.0% solution (percentage of total degradates on storage); format: physicochemical; details: for individual degradate versus ICH qualification threshold: about 2 months
Experimental: Three separate 5.0% aqueous solutions of the compound of Formula 1 were prepared and allowed to stand at temperatures of about 5° C., 25° C., and 40° C. respectively for a period of about 15 months. The percentage of total degradates was measured for each solution after about every 4 weeks. The results of this experiment are graphically represented in FIG. 1.

[5] = Effect of various antioxidants on stability at pH 6.5; format: physicochemical; details: pH about 6.5, about 40° C., about one month, sodium thiosulfate (0.3% w/v) alone vs bisulfite, acetylcysteine, thioglycerol, Vitamin E TPGS, ascorbic acid
Experimental: Seven different solutions of Formula 1, buffered at a pH of about 6.5, were prepared. Sodium bisulfite (0.2% w/v) and sodium thiosulfate (0.3% w/v) were added to the first solution, sodium bisulfite (0.2% w/v) was added to the second solution, sodium thiosulfate (0.3% w/v) was added to the third solution, acetylcysteine (0.2% w/v) was added to the fourth solution, thioglycerol (0.2% w/v) was added to the fifth solution, Vitamin E TPGS ([…]) was added to the sixth solution, and ascorbic acid (0.3% w/v) was added to the seventh solution. All solutions were stored at a temperature of about 40° C. for a period of about one month after which the percentage of total degradates was measured for each solution. The results of this experiment are graphically represented in FIG. 11.

Systemic clearance = details: in vivo
[6] = molecular target: LFA-1 interactions with ICAM-1 (Homo sapiens, UniProt P05107+P20701); assay: Inhibition of LFA-1 interactions with ICAM-1
Sequence of LFA-1 interactions with ICAM-1 (P20701 26-1170): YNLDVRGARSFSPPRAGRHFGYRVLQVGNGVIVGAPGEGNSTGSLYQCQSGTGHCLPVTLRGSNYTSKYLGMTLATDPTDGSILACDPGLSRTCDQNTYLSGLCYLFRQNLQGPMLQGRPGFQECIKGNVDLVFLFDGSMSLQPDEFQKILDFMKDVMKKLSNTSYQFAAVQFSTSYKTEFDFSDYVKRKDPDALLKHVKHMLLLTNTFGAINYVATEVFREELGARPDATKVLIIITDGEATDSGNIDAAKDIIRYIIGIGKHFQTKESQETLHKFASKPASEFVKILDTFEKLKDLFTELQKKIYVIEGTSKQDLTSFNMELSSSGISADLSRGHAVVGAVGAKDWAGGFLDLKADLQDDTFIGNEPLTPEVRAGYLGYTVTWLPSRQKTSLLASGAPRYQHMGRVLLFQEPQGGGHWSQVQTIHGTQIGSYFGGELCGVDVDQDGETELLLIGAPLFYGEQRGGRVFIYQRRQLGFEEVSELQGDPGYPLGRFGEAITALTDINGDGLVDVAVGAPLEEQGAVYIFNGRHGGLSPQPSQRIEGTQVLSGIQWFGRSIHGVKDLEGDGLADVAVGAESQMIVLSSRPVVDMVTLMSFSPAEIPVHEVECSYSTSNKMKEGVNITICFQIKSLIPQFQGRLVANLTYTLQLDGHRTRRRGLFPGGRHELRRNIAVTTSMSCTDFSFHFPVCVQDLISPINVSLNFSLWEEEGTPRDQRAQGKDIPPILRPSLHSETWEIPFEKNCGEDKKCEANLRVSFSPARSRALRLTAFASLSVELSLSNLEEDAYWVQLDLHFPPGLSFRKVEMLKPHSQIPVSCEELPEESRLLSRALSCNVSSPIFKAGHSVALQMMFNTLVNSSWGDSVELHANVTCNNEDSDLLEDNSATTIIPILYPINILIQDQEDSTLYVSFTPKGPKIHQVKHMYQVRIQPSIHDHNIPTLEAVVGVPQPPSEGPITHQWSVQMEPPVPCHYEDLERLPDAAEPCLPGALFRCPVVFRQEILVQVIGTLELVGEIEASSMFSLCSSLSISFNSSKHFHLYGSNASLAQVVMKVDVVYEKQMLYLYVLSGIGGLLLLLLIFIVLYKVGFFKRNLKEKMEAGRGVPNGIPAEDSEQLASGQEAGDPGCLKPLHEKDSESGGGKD
Sequence of LFA-1 interactions with ICAM-1 (P05107 23-769): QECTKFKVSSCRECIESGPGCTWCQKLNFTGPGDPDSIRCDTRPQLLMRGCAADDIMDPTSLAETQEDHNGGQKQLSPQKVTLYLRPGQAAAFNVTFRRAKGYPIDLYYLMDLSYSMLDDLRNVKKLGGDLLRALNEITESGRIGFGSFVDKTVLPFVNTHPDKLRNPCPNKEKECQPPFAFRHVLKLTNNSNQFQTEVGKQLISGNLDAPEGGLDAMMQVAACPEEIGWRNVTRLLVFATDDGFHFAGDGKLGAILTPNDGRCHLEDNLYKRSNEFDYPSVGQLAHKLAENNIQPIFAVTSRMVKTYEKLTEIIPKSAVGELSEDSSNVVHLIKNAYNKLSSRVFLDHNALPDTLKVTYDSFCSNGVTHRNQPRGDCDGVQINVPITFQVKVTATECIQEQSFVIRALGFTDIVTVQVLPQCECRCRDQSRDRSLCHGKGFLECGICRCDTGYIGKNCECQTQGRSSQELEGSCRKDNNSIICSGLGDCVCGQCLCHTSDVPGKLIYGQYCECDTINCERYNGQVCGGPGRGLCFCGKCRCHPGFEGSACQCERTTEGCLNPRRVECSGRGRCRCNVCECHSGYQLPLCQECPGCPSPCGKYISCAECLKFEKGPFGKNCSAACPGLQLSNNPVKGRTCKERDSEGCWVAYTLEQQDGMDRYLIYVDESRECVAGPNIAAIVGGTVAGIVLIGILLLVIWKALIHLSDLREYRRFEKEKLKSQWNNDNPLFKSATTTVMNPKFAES

[7] = Effect of antioxidants on stability of 3% w/v solutions; format: physicochemical; details: pH 6.5 with 0.3% w/v thiosulfate salt (40, 50, 60° C.) vs pH 7.5 without antioxidant at 40° C., about nine weeks
Experimental: Four separate solutions containing 3% w/v of the compound of Formula 1 were prepared. The pH of the first solution was buffered to 6.5, 0.3% w/v thiosulfate salt was added and the solution was stored at 50° C. for about nine weeks. The pH of the second solution was adjusted to 6.5, 0.3% thiosulfate salt was added and the solution was stored at 40° C. for about nine weeks. The pH of the third solution was buffered to 6.5, 0.3% thiosulfate salt was added and the solution was allowed to stand at 60° C. for about nine […]. No antioxidant was added to the fourth solution which was buffered to a pH of 7.5 and allowed to stand at a temperature of 40° C. for about 9 weeks. The percentage of total degradates was measured for each solution after about every 2-4 weeks. The results of this experiment are graphically represented in FIG. 3.

[8] = Individual degradates A and B by HPLC analysis on storage; format: physicochemical; details: 5.0% w/v solutions, 40° C. vs 60° C., about nine weeks
Experimental: Two solutions containing 5.0% w/v of the compound of Formula 1 were prepared. The first solution was stored at 40° C. for about 9 weeks and the second solution was stored at 60° C. for a period of about nine weeks. The percentage of each of the two major degradates of Formula 1 (degradate A and degradate B) was measured by HPLC analysis for each solution after about every 2-4 weeks. The results of this experiment are graphically represented in FIG. 5.

[9] = Effect of pH on stability of formulation with antioxidant (metabisulfite); format: physicochemical; details: metabisulfite salt, pH 6.0 and 7.0, about 40° C., about four months
Experimental: as §1, with “Two” for “Three”, “6.0 and” for “6.0,”, “7.0. A metabisulfite salt was added to both the solutions” for “7.0”, “and” for “and pH of the third solution was buffered to 7.5. All the three solutions were sparged with nitrogen”, “10.” for “9.”

[10] = Effect of concentration (and EDTA) on formulation stability; format: physicochemical; details: solutions with and without 0.1% EDTA
Experimental: Three different concentrations of the compound of Formula 1, 1.0%, 3.0% and 5.0% were studied. The samples were monitored at a temperature of 40° C. The pH of the three solutions was maintained in the range of 7.0-7.5. The total % degradation of the three solutions was monitored with respect to time. The results of this experiment are graphically represented in FIG. 4.
Solutions both with and without 0.1% EDTA were monitored.

[11] = Degradation profile of 1.0% and 5.0% w/v solutions (degradation mechanism); format: physicochemical
Source text: The results of these experiments are graphically represented in FIG. 7.

[12] = Effect of sparging with nitrogen on stability; format: physicochemical; details: about 40° C., about four months
Experimental: Four separate solutions of the compound of Formula 1 were prepared. The pH of the first solution was buffered to 6.0. The pH of the second solution was also buffered to 6.0 and the solution was additionally sparged with nitrogen. The pH of the third solution was buffered to 7.0. The pH of the fourth solution was also buffered to 7.0 and the solution was further sparged with nitrogen. All the four solutions were stored at a temperature of about 40° C. for a period of about four months. The percentage of total degradates was measured for each solution after about every four weeks. The results of this experiment are graphically represented in FIG. 8.

## CS(=O)(=O)c1cccc(C[C@H](NC(=O)c2c(Cl)cc3c(c2Cl)CCN(C(=O)c2ccc4ccoc4c2)C3)C(=O)O)c1 [compound of Formula 1]
[1]
  stability (total degradates), effect of pH: higher pH exhibited better stability
[2]; pH 6.0 with metabisulfite salt vs pH 6.0 without additives, about four months
  stability (total degradates), effect of added antioxidant: increases the stability
[2]; pH 7.5 without antioxidant vs pH 6.0 without additives, about 4 months
  stability (total degradates), effect of increasing pH: increases the stability
[3]
  stability (total degradates), effect of pH: higher pH exhibited improved stability
[4]; 5.0% aqueous solution stored at 5° C., about 6 months
  individual degradant versus ICH qualification threshold: no individual degradant above the ICH qualification threshold
[4]; 5.0% aqueous solution stored at 5° C., after about 6 months
  total degradation product: about 5%
[4]; 5.0% aqueous solution stored at 25° C.
  individual degradate versus ICH qualification threshold: no individual degradate above the ICH qualification threshold
[4]; 5.0% aqueous solution stored at 25° C., in about 2 months
  total degradation product: 5%
[4]; 5.0% aqueous solution stored at 40° C.
  individual degradate versus ICH qualification threshold: no individual degradate above the ICH qualification threshold
[4]; 5.0% aqueous solution stored at 40° C., in about 2 months
  total degradation product: 5%
[5]
  stability (total degradates), comparison of antioxidants: best overall stability
Systemic clearance
  systemic clearance rate: rapid systemic clearance rate
[6]
  inhibition of LFA-1 interactions with ICAM-1: effective inhibitor
[7]
  stability (total degradates), effect of added antioxidant: increased the stability
[8]
  % formation of degradates A and B, effect of storage temperature: did not significantly affect
[9]
  degradation and pH sensitivity of stability, effect of antioxidant: significantly reduces both the degradation of Formula 1 and the sensitivity of the stability of Formula 1 to pH
[10]
  stability, effect of presence or absence of EDTA: did significantly change the stability
[11]; total percentage degradation about every four weeks for six months
  rate of degradation, 5.0% w/v vs 1.0% w/v solution: greater than the rate of degradation of the 1.0 w/v solution
[11]; when a limiting reactant such as oxygen is reduced, six months
  final level of degradation, 5.0% w/v vs 1.0% w/v solution: appear to reach the same level of degradation
[12]; pH 6.0 and pH 7.0, sparged vs not sparged
  stability (total degradates), effect of nitrogen sparging: better stability
[12]; with and without nitrogen sparging
  stability (total degradates), pH 7.0 vs pH 6.0: improved stability
